# From patent publication US6699682B2, “Assay for inhibitors of fatty-acid amide hydrolase” (The Scripps Research Institute, priority 1995, dated 2004)
# Assays:
# [1] = molecular target: T1, recombinant expressed rat FAAH (Rattus norvegicus, UniProt P97612); test: FAAH hydrolysis assays with 14C-labeled fatty acid amide substrates (TLC, scintillation counting); type: biochemical; conditions: for Rate of Hydrolysis: 35 μg transfected COS-7 cell protein, 5 minutes, 37° C.
# T1 construct: expressed in transfected cells; host or cells: COS-7 cells, transient, pcDNA3; dounce-homogenised cell extract
# T1 sequence (P97612 1-579): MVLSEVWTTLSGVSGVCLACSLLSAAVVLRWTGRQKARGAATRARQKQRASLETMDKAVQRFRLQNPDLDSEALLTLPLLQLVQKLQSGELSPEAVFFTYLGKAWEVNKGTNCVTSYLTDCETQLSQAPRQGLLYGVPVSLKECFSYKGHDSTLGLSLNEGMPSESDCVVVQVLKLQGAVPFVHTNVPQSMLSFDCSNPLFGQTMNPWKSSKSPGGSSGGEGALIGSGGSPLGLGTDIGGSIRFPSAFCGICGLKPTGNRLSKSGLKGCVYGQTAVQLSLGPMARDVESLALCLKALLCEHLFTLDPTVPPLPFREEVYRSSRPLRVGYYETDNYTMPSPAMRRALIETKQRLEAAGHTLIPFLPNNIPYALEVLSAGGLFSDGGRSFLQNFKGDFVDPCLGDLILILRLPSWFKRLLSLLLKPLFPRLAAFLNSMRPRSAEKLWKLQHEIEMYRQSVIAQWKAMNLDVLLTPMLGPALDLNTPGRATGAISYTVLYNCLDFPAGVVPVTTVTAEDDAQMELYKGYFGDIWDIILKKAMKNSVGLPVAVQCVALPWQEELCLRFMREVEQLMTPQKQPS
# Protocol: Therefore, COS-7 cells transfected with the rat FAAH cDNA were assayed for anandamide hydrolase activity. To assess the enzymatic activity of the expressed recombinant fatty acid amide hydrolases of this invention on labeled anandamide, the following enzymatic assay was performed. ^14C-anandamide was synthesized as follows: 12.5 μCi (specific activity of 50 μCi/μM) of ^14C arachidonic acid (Moravek Biochemicals) was dissolved in 100 μl CH2Cl2, cooled to 0° C., and treated with excess oxalyl chloride. The reaction mixture was stirred at 25° C. for 6 hours, after which time the solvent was evaporated. The remaining residue was cooled to 0° C., treated with a large excess of ethanolamine, and stirred at 25° C. for 15 minutes. The reaction mixture was then partitioned between ethyl acetate and 2 M HCl, and the organic layer was washed with water and then evaporated to dryness. The resulting ^14C-anandamide was diluted with unlabeled anandamide to a final specific activity of 5 μCi/μM in ethanol. Approximately 1 μCi of ^14C-anandamide and 20 μl of dounce homogenized COS-7 cell extract were used for each anandamide hydrolase assay as detailed above for the oleamide hydrolase assays. Briefly, FAAH hydrolysis assays were conducted in triplicate with 100 μM substrate, 35 μg of rat transfected COS-7 cell protein for 5 minutes at 37° C. (except in the case of stearic amide, where due to low solubility, 20 μM substrate comparison to oleamide were conducted). Products were separated on TLC as described previously, scraped into scintillation fluid, and radioactivity was quantitated by scintillation counting. Substrate hydrolysis in the presence of equal amounts of untransfected COS-7 cell protein extract served as background control in all cases and was substracted from FAAH hydrolysis rates to give the data as presented below.
# To further assess the substrate specificity spectrum of enyzmatic hydolytic activity of the recombinant expressed proteins of this invention, other ^14C-labeled fatty acid amides were synthesized as described in Section B6 and above for ^14C-oleamide, with the exception of anandamide as described.
# Where indicated in the table the anandamide and oleamide hydrolysis rates are considered to be 100% of FAAH activity to which other fatty acid amide hydrolysis rates are compared.
# male Sprague-Dawley rats = test: polysomnographic sleep recordings (EEG/EMG) in rats; type: in vivo, rat; conditions: 10 mg ip, recorded four hours
# From the text: We have compared cis-9,10-octadecenoamide to vehicle and the synthetic analogs listed in FIG. 1 to estimate the structural specificity of its sleep-inducing potential. […] More particularly, male Sprague-Dawley rats (300 g at the time of surgery) were implanted under halothane anesthesia (2-3%) with a standard set of electrodes for sleep recordings. This included two screw electrodes placed in the parietal bone over the hippocampus to record the subjects electroencephalogram (EEG) and two wire electrodes inserted in the neck musculature to record postural tone through electromyographic activity (EMG). Rats were housed individually with at libitum access to food and water. The dark-light cycle was controlled (12:12, lights on a 10:00 p.m.). One week after the surgery, rats were habituated to the recording conditions for at least three days. Upon the completion of the habituation period, rats received 2 milliliter (ip) of either: vehicle (5% ethanol/saline solution), cis-9,10-octadecenoamide (10 mg), or oleic acid (10 mg). […] Sleep recordings were visually scored and four stages were determined: wakefulness, slow-wave-sleep 1 (SWS1), slow-wave-sleep 2 (SWS2), and rapid eye movement (REM) sleep.
# These increases with respect to slow wave sleep (SWS) were at the expense of waking.
compound,measurement,setting,value
"CCCCCCCC/C=C\CCCCCCCC(N)=O [cis-9,10-octadecenoamide, Cis-9,10-octadecenoamide]",rate difference between hydrolysis of oleamide and stearic amide,[1],nearly twenty fold
same,% of FAAH activity (oleamide hydrolysis rate = 100%),[1]; 20 μM substrate,100%
same,Rate of Hydrolysis,[1]; 20 μM substrate,41 ± 2 nmol/min/mg
same,% of FAAH activity (anandamide hydrolysis rate = 100%),[1]; 100 μM substrate,72.6%
same,Rate of Hydrolysis,[1]; 100 μM substrate,242 ± 20 nmol/min/mg
same,distribution of REM sleep,male Sprague-Dawley rats,does not seem to be altered
same,mean duration of the SWS individual periods compared to vehicle controls,male Sprague-Dawley rats,increase
same,total time of slow wave sleep (SWS) compared to vehicle controls,male Sprague-Dawley rats,increase in the total time of slow wave sleep (SWS)
